Laboratory results reported in US9706776B2, “Pesticidally active substituted 5,5-bicyclic heterocycles with sulphur containing substituents” (Syngenta Participations AG, priority 2013, dated 2017).

Assays:
[1] = system: Spodoptera littoralis (Egyptian cotton leaf worm); assay: Example B1: Spodoptera littoralis larvicide, feeding/residual contact, preventive (cotton leaf discs); assay type: in vivo; conditions: foliar, 72 h, L1 larvae, 3 days after treatment, read-out: activity (mortality, repellent effect, feeding behaviour, growth regulation)
Excerpt: Example B1: Activity Against Spodoptera littoralis (Egyptian Cotton Leaf Worm)
(§1) (Larvicide, Feeding/Residual Contact Activity, Preventive)
Cotton leaf discs were placed on agar in a 24-well microtiter plate and sprayed with test solutions. After drying, the leaf discs were infested with 5 L1 larvae. The samples were checked for mortality, repellent effect, feeding behaviour, and growth regulation 3 days after treatment (DAT).

[2] = system: Plutella xylostella (diamond back moth); assay: Example B3: Plutella xylostella larvicide, feeding/residual contact, preventive (artificial diet); assay type: in vivo; conditions: 120 h, L2 larvae, incubation 5 days, read-out: activity (larval mortality, antifeedant, growth regulation)
Procedure: Example B3: Activity Against Plutella xylostella (Diamond Back Moth)
as §1
24-well microtiter plate (MTP) with artificial diet was treated with test solutions by pipetting. After drying, the MTPs were infested with L2 larvae (10-15 per well). After an incubation period of 5 days, samples were checked for larval mortality, antifeedant and growth regulation.

[3] = system: Myzus persicae (green peach aphid); assay: Example B7: Myzus persicae systemic/feeding activity, curative, mixed population (pea seedlings); assay type: in vivo; conditions: 144 h, systemic, 6 days after introduction, read-out: activity (mortality and special effects on the plant)
Excerpt: Example B7: Activity Against Myzus persicae (Green Peach Aphid)
(Systemic/Feeding Activity, Curative), Mixed Population
Roots of pea seedlings, infested with an aphid population of mixed ages, were placed directly in the test solutions. 6 days after introduction, samples were checked for mortality and special effects on the plant.

[4] = system: Myzus persicae (green peach aphid); assay: Example B5: Myzus persicae feeding/residual contact, preventive, mixed population (sunflower leaf discs); assay type: in vivo; conditions: foliar, 144 h, 6 DAT, read-out: activity (mortality and special effects)
Procedure: Example B5: Activity Against Myzus persicae (Green Peach Aphid)
(Feeding/Residual Contact Activity, Preventive), Mixed Population
Sunflower leaf discs were placed on agar in a 24-well microtiter plate and sprayed with test solutions. After drying, the leaf discs were infested with an aphid population of mixed ages. After an incubation period of 6 DAT, samples were checked for mortality and special effects (e.g. phytotoxicity).

[5] = system: Diabrotica balteata (corn root worm); assay: Example B4: Diabrotica balteata larvae L2 on maize sprouts, feeding/contact, preventative; assay type: in vivo; conditions: 120 h, incubation 5 days, read-out: activity (larval mortality, growth regulation)
Procedure: Example B4: Activity Against Diabrotica Balteata (Corn Root Worm)
(Larvae L2 on Maize Sprouts, Feeding/Contact, Preventative)
Maize sprouts, placed on an agar layer in 24 well micro titer plates were treated with test solutions by spraying. After drying, the MTPs were infested with L2 larvae (6-10 per well). After an incubation period of 5 days, samples were checked for larval mortality and growth regulation.

[6] = system: Spodoptera littoralis (Egyptian cotton leaf worm); assay: Example B2: Spodoptera littoralis systemic activity (lettuce on agar); assay type: in vivo; conditions: 120 h, 5 days after infestation, read-out: activity (mortality, repellent effect, feeding behavior, growth regulation)
Excerpt: Example B2: Activity Against Spodoptera littoralis (Egyptian Cotton Leaf Worm)
Test compounds were applied by pipette into 24 well plates and mixed with agar. Lettuce seeds were placed on the agar and the multi well plate is closed by another plate which contains also agar. After 7 days the roots have absorbed the compound and the lettuce has grown into the lid plate. The lettuce leaves were now cut off into the lid plate. Spodoptera eggs were pipetted through a plastic stencil on a humid gel blotting paper and the plate closed with it. The samples are checked for mortality, repellent effect, feeding behavior, and growth regulation 5 days after infestation.

[7] = system: Euschistus heros (neotropical brown stink bug); assay: Example B8: Euschistus heros on sprayed soybean leaf; assay type: in vivo; conditions: 120 h, N-2 nymphs, 5 days after infestation
Procedure: Example B8: Activity Against Euschistus heros (Neotropical Brown Stink Bug)
Soybean leaf on agar in 24-well microtiter plates were sprayed with aqueous test solutions prepared from 10′000 ppm DMSO stock solutions. After drying the leaf were infested with N-2 nymphs. The samples were assessed for mortality 5 days after infestation.

[8] = system: Myzus persicae (green peach aphid); assay: Example B6: Myzus persicae feeding activity sachet test, mixed population; assay type: in vivo; conditions: 120 h, 5 days after infestation
Excerpt: Example B6: Activity Against Myzus persicae (Green Peach Aphid)
(Feeding Activity Sachet Test), Mixed Population
Test compounds were applied by pipette into 24 well plates and mixed with Sucrose solution. The plates were closed with a stretched Parafilm. A plastic stencil with 24 holes is placed onto the plate and infested pea seedlings were placed directly on the Parafilm. The infested plate is closed with a gel blotting paper and another plastic stencil and then turned upside down. 5 days after infestation the samples were checked on mortality. Application rate: 12.5 ppm.

[9] = system: Anopheles stephensi (Indian malaria mosquito); assay: Example B10: Anopheles stephensi adult females on treated tissue culture plates; assay type: in vivo; conditions: application rate 200 ppm in ethanol; after 48 h
Procedure: Example B10: Activity Against Anopheles stephensi (Indian Malaria Mosquito)
Test solutions, at an application rate of 200 ppm in ethanol, were applied to 12-well tissue culture plates. Once the deposits were dry, five, two to five day old adult female Anopheles stephensi were added to each well, and sustained with a 10% sucrose solution in a cotton wool plug. Assessment of knockdown was made one hour after introduction, and mortality was assessed at 24 and 48 hours after introduction.

melting point [°C] | SMILES | mortality at 400 ppm [1] [%] | mortality at 400 ppm [2] [%] | mortality at 24 ppm [3] [%] | mortality at 400 ppm [4] [%] | mortality at 400 ppm [5] [%] | mortality at 12.5 ppm [6] [%] | mortality at 400 ppm [7] [%] | mortality at 12.5 ppm [8] [%] | control of Anopheles stephensi [9]
 | CCS(=O)(=O)c1cccnc1-c1nc2sc(C(F)(F)F)nn2c1C [Compound P5] | > 80 | > 80 | ≥ 80 | > 80 |  |  |  |  | 
 | CC[S+]([O-])c1cc(C(F)(F)F)cnc1-c1cn2cc(C(F)(F)F)sc2n1 (stereo not shown) [Compound P10] | > 80 |  |  |  |  |  |  |  | 
 | CCS(=O)(=O)c1cc(C(F)(F)F)cnc1-c1cn2nc(C(F)(F)F)sc2n1 [Compound P4] | > 80 | > 80 |  |  | > 80 |  |  |  | 
 | CCS(=O)(=O)c1cc(C(F)(F)F)cnc1-c1cn2nc(C(F)(F)C(F)(F)F)sc2n1 [Compound P8] | > 80 | > 80 |  | > 80 | > 80 | ≥ 80 | > 80 |  | 
 | CCS(=O)(=O)c1cc(C(F)(F)F)cnc1-c1nc2sc(C(F)(F)F)nn2c1C [Compound P3, 6-[3-ethylsulfonyl-5-(trifluoromethyl)-2-pyridyl]-5-methyl-2-(trifluoromethyl)imidazo[2,1-b][1,3,4]thiadiazole] | > 80 | > 80 |  | > 80 | > 80 |  |  | ≥ 80 | 
 | CCS(=O)(=O)c1cc(C(F)(F)F)cnc1-c1cn2cc(C(F)(F)F)sc2n1 [Compound P9, 6-[3-ethylsulfonyl-5-(trifluoromethyl)-2-pyridyl]-2-(trifluoromethyl)imidazo[2,1-b]thiazole] | > 80 | > 80 |  | > 80 | > 80 |  |  |  | 
110 to 112 | CCSc1cc(C(F)(F)F)cnc1-c1cn2nc(C(F)(F)C(F)(F)F)sc2n1 [Compound P6] |  |  |  |  |  |  |  |  | 
 | CCS(=O)(=O)c1cccnc1-c1cn2nc(C(F)(F)F)sc2n1 [Compound P2, 6-(3-ethylsulfonyl-2-pyridyl)-2-(trifluoromethyl)imidazo[2,1-b][1,3,4]thiadiazole] | > 80 | > 80 | ≥ 80 | > 80 | > 80 | ≥ 80 |  | ≥ 80 | at least 80%
 | CC[S+]([O-])c1cc(C(F)(F)F)cnc1-c1cn2nc(C(F)(F)C(F)(F)F)sc2n1 (stereo not shown) [Compound P7] | > 80 | > 80 |  | > 80 | > 80 |  | > 80 |  | 
